Assays:
TcCYP51 = settings: cited from earlier work; for CYP51 pIC50: formerly reported
[1] = tested on: H9c2 (rat cardiomyocytes); assay: RoK assay, number of host cells nuclei (drug-related cytotoxicity, H9c2 output, Cmin_Tox); settings: for Cmin_Tox: H9c2 host cells
Protocol: For this high-content intracellular imaging assay, H9c2 cells were seeded in 225 cm^2 T- FLASK in DMEM with 10% FBS for 4 h to allow attachment. T. cruzi trypomastigotes, collected at days 5 to 8 after infection from LLC-MK2 parasite infected cultures, were allowed to swim out for 4 h at 37°C from a centrifuged pellet (1,600 x g / 10 min). Trypomastigotes were then collected and counted in a CASY Cell Counter using the 60 μm capillary. […] Cells were washed once with PBS before incubation of the infected H9c2 monolayer with trypsin (Life-Technologies) to detach cells from the flask. Cells were counted in a CASY Cell Counter, using the 150 μm capillary, and their density set at 5 x 10^4 cells/mL in supplemented DMEM. Infected H9c2 were dispensed into 384-well plates at 50 μL per well using a Multidrop Combi dispenser. Control wells used to determine a 100% parasitic growth (full 6th column of each plate) were left untreated, whereas not infected cells were added in the control wells used as 0% parasite growth (or 100% parasite growth inhibition; full 18th column of each plate). The four plates corresponding to each RoK assay were predispensed for the same mother plate. […] Cultures were then fixed and stained with 50 μL per well of a PBS solution containing 4% formaldehyde and 2 μM DRAQ5 DNA dye (BioStatus, UK). Then plates were read in a PerkinElmer Opera Phenix using a 20x objective, 3 fields per well. DRAQ5 signal was detected using 640 nm excitation laser and a 690/50 nm emission detection filter. Automated image analysis was performed with a script developed on Acapella High Content Imaging and Analysis Software (PerkinElmer). Two outputs were provided for each sample well: (1) number of host cells nuclei to determine drug-related cytotoxicity (aka H9c2) and (2) number of amastigotes per cell as infection level measurement (aka AM/CELL). Each output is plotted as a time course for each compound at every concentration. This assay was adapted from Alonso-Padilla et al. and Peña et al..
• ME (Maximum Effect) is the maximum percentage of parasite burden reduction reached by any compound concentration. Compounds that decrease the initial parasite load will show a positive value of ME, whereas compounds that allow the progression of infection will render a negative ME value. […] It is calculated for the MCC50 (t50%_MCC50) and for the maximum concentration (t50%_Cmax). […] The value of this parameter is not either interpolated or extrapolated, and it refers to the first experimental time-course point at which a 50% of effect is reached or exceeded. • tlag defines the time elapsed for one particular concentration to reduce parasite burden between two consecutive points at any moment of the time course. It is calculated for the MCC50 (tlag_MCC50) and for the maximum concentration (tlag_Cmax). The value of this parameter is not either interpolated or extrapolated, and it refers to the first experimental time-course point of a positive slope in the normalised plot (i.e. %Cidal_Response). • Cmin_Tox (Minimal CytoToxic Concentration) is the lowest compound concentration that is reducing the number of host mammalian cells below 50% of initial cell density. Cytotoxic compounds may mislead a bona fide antiparasitic action. Therefore, this descriptor is used to flag this kind of compounds and warn about the genuine meaning of the rest of descriptors.

Compound | CYP51 pIC50 (TcCYP51) | Cmin_Tox [1] [µM] | CYP51 mean (TcCYP51; TcCYP51 enzyme inhibition, mean, figure 1B, ref original boxes paper) | cytotoxicity versus host cells (in words) [1]
CC(C)Nc1nccc(-c2c(-c3ccc(F)cc3)ncn2C2CCOCC2)n1 [TCMDC-143379] | < 4 | >50 | – | –
Cn1cncc1CN1CCC2(CC1)COC(Cc1ccccc1)C2 (centres unmarked) [TCMDC-143502] | 6 | >50 | – | –
COc1ccc(S(=O)(=O)NCc2ccc(-c3ccc(CN(C)CCO)cc3)cc2)cc1.O=C(O)C(F)(F)F [TCMDC-143549] | 4.8 | >50 | – | –
N#Cc1ccc(S(=O)(=O)N2CCC3(CCN(c4ccccc4)C3=O)CC2)cc1 [TCMDC-143371] | < 4 | >50 | – | –
O=C(Nc1ccc(Br)c(Cl)c1)Nc1ccc2c(c1)OCO2 [TCMDC-143588] | < 4 | >50 | – | –
CCCN(Cc1ccc(OC)c(OC)c1)Cc1cc(=O)c2c(C)cc(C)cc2[nH]1 [TCMDC-143331] | 4.5 | >50 | – | –
Cc1nn(C)c(Cl)c1CN(Cc1cccnc1)Cc1ccsc1 [TCMDC-143477] | 7.2 | >50 | – | –
O[C@H]1CC[C@H](Nc2nccc(-c3sc(C4CCOCC4)nc3-c3ccc(F)c(F)c3)n2)CC1 [TCMDC-143387] | < 4 | 16.7 | – | –
CC(C)N(C(=O)CN1C(=O)C(N)C(=O)N(c2ccccc2)c2ccccc21)c1ccccc1 (centres unmarked) [TCMDC-143071] | 6.5 | >50 | – | –
CN(C)Cc1ccc(N2CCC(NS(=O)(=O)c3ccc(Cl)cc3)CC2)cc1 [TCMDC-143623] | < 4 | 25.3 | – | –
COc1ccc(C2CC(c3ccccc3Cl)=NN2C(=O)CNC(=O)C2CCC2)cc1 (centres unmarked) [TCMDC-143130] | 4.3 | >50 | – | –
Cc1sc(C)c(C(F)(F)F)c1CNCCCNc1cc(=O)c2ccccc2[nH]1.Cl [TCMDC-140766] | 4.7 | 50.0 | – | –
CS(=O)(=O)c1cccc(-c2cnc(N)c3c(-c4ccc(CO)cc4)csc23)c1.O=C(O)C(F)(F)F [TCMDC-143410] | 5.5 | >50 | – | –
O=C1CSC(c2cccnc2)N1c1ccc(Cl)cc1Cl (centres unmarked) [TCMDC-143114] | 6.8 | >50 | – | –
CC1CS(=O)(=O)CCN1/N=C/c1ccc([N+](=O)[O-])o1 (centres unmarked) [Nifurtimox, nifurtimox, reference compound] | < 4 | >50 | 4.3 | –
O=C(O)/C=C\C(=O)O.O=C(c1ccc(OCCCc2cnc[nH]2)cc1)C1CC1 [TCMDC-143632] | 7.3 | >50 | – | –
Cc1cc(N(C)C)nc(Nc2ccccc2C)n1 [TCMDC-143109] | < 4 | >50 | – | –
O=C(N1CCc2ccccc2CC1)C1(C(=O)N2CCC(n3c(=O)[nH]c4ncccc43)CC2)CC1.O=C(O)C(F)(F)F [TCMDC-143381] | 6.5 | >50 | – | –
COc1ccc2ncc(=O)n(CCN3CCOC(CNCc4ccc(C(F)(F)F)cc4F)C3)c2n1 (centres unmarked) [TCMDC-143384] | 5 | >50 | – | –
CCOc1ccc(NC(=O)C=Cc2ccc(CC)o2)cc1 [TCMDC-143160] | < 4 | 50.0 | – | –
CN(C)CCOc1ccc(N2CCN(S(=O)(=O)c3ccc(Cl)cc3)CC2)cc1 [TCMDC-143622] | 4.6 | >50 | – | –

Compound | CYP51 pIC50 (TcCYP51) | Cmin_Tox [1] [µM] | CYP51 mean (TcCYP51; TcCYP51 enzyme inhibition, mean, figure 1B, ref original boxes paper) | cytotoxicity versus host cells (in words) [1]
O=C(CN(c1cccc(C(F)(F)F)c1)S(=O)(=O)c1ccc(Cl)cc1)NCc1ccc(F)c(F)c1 [TCMDC-143548] | 6.8 | >50 | – | –
Cc1ccc(C)c(OC2CCN(C(=O)C(C)n3ccnc3)CC2)c1 (centres unmarked) [TCMDC-143481] | 7 | >50 | – | –
Cc1cc2cncn2c(C2CCCCN2C(=O)c2cccs2)n1 (centres unmarked) [TCMDC-143500] | 7 | >50 | – | –
CC(C)(C)C(Cn1ccnc1)NC(=O)c1ccc2nc(C3CC3)oc2c1 (centres unmarked) [TCMDC-143336] | 7 | >50 | – | –
OCCCNc1nc(Nc2ccncc2)nc2ccccc12 [TCMDC-143476] | < 4 | >50 | – | –
CNc1c(C(N)=O)c(-c2ccc3scnc3c2)nn1CC(F)(F)F.O=C(O)C(F)(F)F [TCMDC-143463] | < 4 | >50 | – | –
Cc1nc2nc(C)c(Cc3ccc(C(C)C)cc3)c(=O)n2[nH]1 [TCMDC-143087] | < 4 | >50 | – | –
COc1cc(C(C)C)c(S(C)(=O)=O)cc1C(=O)N1CCN(c2ccccc2Cl)CC1 [TCMDC-143097] | < 4 | >50 | – | –
N#Cc1cc(N2CCCC2=O)ccc1Sc1ccccc1CO [TCMDC-143604] | 4.7 | >50 | – | –
CC(CNS(=O)(=O)c1ccc(OC(F)F)cc1)c1ccc(NC(=O)c2ccncc2)cc1 (centres unmarked) [TCMDC-143535] | 7.3 | >50 | – | –
O=C(CSc1ccc(-c2ccccn2)nn1)Nc1ccc(Cl)cc1 [TCMDC-143552] | < 4 | >50 | – | –
O=C(O)C(F)(F)F.O=c1oc2ccccc2n1C1CCN(Cc2ccccc2-c2cccnc2)CC1 [TCMDC-143389] | 7 | >50 | – | –
CS(=O)(=O)c1cccc(CNC(=O)c2cncc(N3CCN(c4ccc(F)cc4)CC3)c2)c1.O=C(O)C(F)(F)F.O=C(O)C(F)(F)F.O=C(O)C(F)(F)F [TCMDC-143385] | 4.9 | >50 | – | –
CN1CCCN(C(=O)c2ccc(N3CCCC3)cc2Cl)CC1 [TCMDC-143127] | < 4 | >50 | – | –
COc1ccc(NS(=O)(=O)c2cc(NC(=O)c3ccc([N+](=O)[O-])s3)ccc2OC)cc1 [TCMDC-143163] | 6 | >50 | – | –
COc1ccc(-c2nc3ncccc3o2)cc1NC(=O)c1cccs1 [TCMDC-143137] | < 4 | >50 | – | –
Cc1nccn1C1CCCN(C(=O)c2cc3c(F)cccc3s2)C1 (centres unmarked) [TCMDC-143498] | 4.3 | >50 | – | –
CN(C(=O)Nc1ccc2c(c1)CCN(C1CCC1)CC2)c1ccc(C#N)cc1.Cl [TCMDC-143526] | < 4 | >50 | – | –
COc1cccc(C(=O)[C@H]2C[C@@H]2CN(Cc2cccnc2)Cc2cccnc2)c1 [TCMDC-143593] | 7.2 | >50 | – | –
COc1cccc(CCNC(=O)C(c2cn[nH]c2)N2CCN(c3ccc(Cl)cc3)CC2)c1 (centres unmarked) [TCMDC-143434] | 7.2 | >50 | – | hints of cytotoxicity even at low concentrations
NC(=O)c1ccccc1Nc1nc(NC2CCCCC2)nc2[nH]ccc12 [TCMDC-143314] | < 4 | 1.9 | – | –
